# Reference: patent US20170232083A1, “METHODS OF DIAGNOSIS AND TREATMENT OF CELIAC DISEASE IN CHILDREN” (priority 2014, published 2017)
# Tests used:
# [1] = tested on: PBMC from newly diagnosed / untreated CD children; conditions: Liu et al.; cited from earlier work
# [2] = tested on: PBMC (polyclonal gluten-specific T cells) of paediatric and adult CD patients; conditions: corresponding adult data shown for comparison (14); cited from earlier work
# [3] = tested on: PBMC (polyclonal gluten-specific T cells) of paediatric and adult CD patients; assay: IFN-γ ELISpot of PBMC after 3 day oral wheat challenge (SFU, % of maximal peptide response, dominance scores, EC50; Examples 5-6); type: cell-based, human; conditions: for Dominance score 3-5yrs (n = 9): CD children 3-5yrs, n = 9, following wheat challenge; for Dominance score 3-5yrs (n = 9) / Dominance score 6-10yrs (n = 10) / Dominance score 11-18yrs (n = 11): mean percentage of maximal peptide response; for Dominance score 6-10yrs (n = 10): CD children 6-10yrs, n = 10, following wheat challenge; for Dominance score 11-18yrs (n = 11): CD children 11-18yrs, n = 11, following wheat challenge; for Dominance score Mean all ages: CD children, following wheat challenge (Table 9); for Dominance scores 3-5 yrs: children with celiac disease 3-5 yrs after wheat challenge (Table 14); for Dominance scores 6-10 yrs: children with celiac disease 6-10 yrs after wheat challenge (Table 14); for Dominance scores 11-18 yrs: children with celiac disease 11-18 yrs after wheat challenge (Table 14); for Dominance scores Mean all ages: mean of all subjects (Table 14); for IFN-γ ELISpot response: after oral wheat challenge
substance,measurement,setting,value
PFPQPELPY [DQ2.5-glia-α1a],individual CD children with responses,[1],3/10
PQPELPYPQ [DQ2.5-glia-α2],individual CD children with responses,[1],0/10
QPFPQPQQPIPVQ [Peptide W04],Dominance scores 18+ yrs,[2],31
same,Dominance score 3-5yrs (n = 9),[3],44.5
same,Dominance score 6-10yrs (n = 10),[3],44.2
same,Dominance score 11-18yrs (n = 11),[3],47.5
same,Dominance score Mean all ages,[3],45.6
same,Dominance scores 3-5 yrs,[3],43
same,Dominance scores 6-10 yrs,[3],44
same,Dominance scores 11-18 yrs,[3],48
same,Dominance scores Mean all ages,[3],45
same,IFN-γ ELISpot response,"[3]; patient A, 11-17 yrs, cut-off 10 SFU",1 SFU
same,Significant response as percentage of maximal peptide SFU,"[3]; patient D, max peptide 30.5 SFU",′′ (21-40% = ′′)
same,IFN-γ ELISpot response,"[3]; patient E, H, 11-17 yrs, cut-off 10 SFU",51 SFU
same,Significant response as percentage of maximal peptide SFU,"[3]; patient E, max peptide 224 SFU",′′ (21-40% = ′′)
same,IFN-γ ELISpot response,"[3]; patient F, 11-17 yrs, cut-off 10 SFU",40 SFU
same,Significant response as percentage of maximal peptide SFU,"[3]; patient F, max peptide 178 SFU",′′ (21-40% = ′′)
same,IFN-γ ELISpot response,"[3]; patient G, 11-17 yrs, cut-off 10 SFU",4 SFU
same,IFN-γ ELISpot response,"[3]; patient H (HLA-DQ2.5 homozygote), 3-5yrs, cut-off 10 SFU",9 SFU
same,IFN-γ ELISpot response,"[3]; patient H, 11-17 yrs, cut-off 10 SFU",4 SFU
same,IFN-γ ELISpot response,"[3]; patient ID not given, 11-17 yrs, cut-off 10 SFU",65 SFU
same,Significant response as percentage of maximal peptide SFU,"[3]; patient ID not given, max peptide 95 SFU",′′′ (41-70% = ′′′)
same,Significant response as percentage of maximal peptide SFU,"[3]; patient J, max peptide 196 SFU",′′′ (41-70% = ′′′)
same,Significant response as percentage of maximal peptide SFU,"[3]; patient K, max peptide 53 SFU",′′ (21-40% = ′′)
same,IFN-γ ELISpot response,"[3]; patient N, 3-5yrs, cut-off 10 SFU",5 SFU
same,IFN-γ ELISpot response,"[3]; patient P, 11-17 yrs, cut-off 21.6 SFU",21 SFU
same,IFN-γ ELISpot response,"[3]; patient Q, 11-17 yrs, cut-off 10 SFU",37 SFU
same,Significant response as percentage of maximal peptide SFU,"[3]; patient Q, max peptide 97 SFU",′′ (21-40% = ′′)
same,IFN-γ ELISpot response,"[3]; patient U, H, 11-17 yrs, cut-off 10 SFU",30 SFU
same,Significant response as percentage of maximal peptide SFU,"[3]; patient U, max peptide 81 SFU",′′ (21-40% = ′′)
same,IFN-γ ELISpot response,"[3]; patient V, 6-10 yrs, cut-off 10 SFU",11 SFU
same,Significant response as percentage of maximal peptide SFU,"[3]; patient V, max peptide 35 SFU",′′ (21-40% = ′′)
same,IFN-γ ELISpot response,"[3]; patient Y, 6-10 yrs, cut-off 10 SFU",3 SFU
same,IFN-γ ELISpot response,"[3]; patient eleven, 6-10 yrs, cut-off 10 SFU",4 SFU
same,Significant response as percentage of maximal peptide SFU,"[3]; patient five, max peptide 48 SFU",+ (>70% = +)
same,IFN-γ ELISpot response,"[3]; patient four, 3-5yrs, cut-off 10 SFU",9 SFU
same,IFN-γ ELISpot response,"[3]; patient seven, 6-10 yrs, cut-off 10.5 SFU",13 SFU
same,Significant response as percentage of maximal peptide SFU,"[3]; patient seven, max peptide 27 SFU",′′′ (41-70% = ′′′)
same,IFN-γ ELISpot response,"[3]; patient ten, 3-5yrs, cut-off 10 SFU",9 SFU
same,IFN-γ ELISpot response,"[3]; patient three, 6-10 yrs, cut-off 10.5 SFU",136 SFU
same,IFN-γ ELISpot response,"[3]; patient twelve, 11-17 yrs, cut-off 10 SFU",12 SFU
same,IFN-γ ELISpot response,"[3]; patient two, 3-5yrs, cut-off 10 SFU",17 SFU
same,Significant response as percentage of maximal peptide SFU,"[3]; patient two, max peptide 60 SFU",′′ (21-40% = ′′)
W05 (QPFPQPEQPFSQQ) [Peptide W05],Dominance scores 18+ yrs,[2],15
same,Dominance score 3-5yrs (n = 9),[3],23.4
same,Dominance score 6-10yrs (n = 10),[3],33.3
same,Dominance score 11-18yrs (n = 11),[3],27.1
same,Dominance score Mean all ages,[3],28.6
same,Dominance scores 3-5 yrs,[3],23
same,Dominance scores 6-10 yrs,[3],33
same,Dominance scores 11-18 yrs,[3],27
same,Dominance scores Mean all ages,[3],28
W07 (QPFPQPEQPFCQQ) [Peptide W07],Dominance scores 18+ yrs,[2],8
same,Dominance score 3-5yrs (n = 9),[3],38.2
same,Dominance score 6-10yrs (n = 10),[3],20.5
same,Dominance score 11-18yrs (n = 11),[3],16.2
same,Dominance score Mean all ages,[3],22.7
same,Dominance scores 3-5 yrs,[3],40
same,Dominance scores 6-10 yrs,[3],20
same,Dominance scores 11-18 yrs,[3],16
same,Dominance scores Mean all ages,[3],24
W08 (LQPFPQPELPYSQP) [Peptide W08],Dominance scores 18+ yrs,[2],8
same,Dominance score 3-5yrs (n = 9),[3],42.1
same,Dominance score 6-10yrs (n = 10),[3],51.7
same,Dominance score 11-18yrs (n = 11),[3],40.2
same,Dominance score Mean all ages,[3],44.9
same,Dominance scores 3-5 yrs,[3],45
same,Dominance scores 6-10 yrs,[3],52
same,Dominance scores 11-18 yrs,[3],40
same,Dominance scores Mean all ages,[3],45
W13 (LQPFPQPELPYLQP) [Peptide W13],Dominance scores 18+ yrs,[2],4
same,Dominance score 3-5yrs (n = 9),[3],29.3
same,Dominance score 6-10yrs (n = 10),[3],32.0
same,Dominance score 11-18yrs (n = 11),[3],30.1
same,Dominance score Mean all ages,[3],30.7
same,Dominance scores 3-5 yrs,[3],34
same,Dominance scores 6-10 yrs,[3],32
same,Dominance scores 11-18 yrs,[3],30
same,Dominance scores Mean all ages,[3],32
W16 (FPQPEQEFPQPQQ) [Peptide W16],Dominance scores 18+ yrs,[2],0
same,Dominance score 3-5yrs (n = 9),[3],19.8
same,Dominance score 6-10yrs (n = 10),[3],47.3
same,Dominance score 11-18yrs (n = 11),[3],26.1
same,Dominance score Mean all ages,[3],32.6
same,Dominance scores 3-5 yrs,[3],23
same,Dominance scores 6-10 yrs,[3],47
same,Dominance scores 11-18 yrs,[3],26
same,Dominance scores Mean all ages,[3],33
W26 (PFPLQPEQPFPQP) [Peptide W26],Dominance scores 18+ yrs,[2],0
same,Dominance score 3-5yrs (n = 9),[3],39.4
same,Dominance score 6-10yrs (n = 10),[3],61.6
same,Dominance score 11-18yrs (n = 11),[3],35.0
same,Dominance score Mean all ages,[3],45.8
same,Dominance scores 3-5 yrs,[3],46
same,Dominance scores 6-10 yrs,[3],62
same,Dominance scores 11-18 yrs,[3],35
same,Dominance scores Mean all ages,[3],47
W32 (PFPEQPEQPFPQP) [Peptide W32],Dominance scores 18+ yrs,[2],0
same,Dominance score 3-5yrs (n = 9),[3],26.9
same,Dominance score 6-10yrs (n = 10),[3],34.4
same,Dominance score 11-18yrs (n = 11),[3],28.2
same,Dominance score Mean all ages,[3],30.2
same,Dominance scores 3-5 yrs,[3],26
same,Dominance scores 6-10 yrs,[3],34
same,Dominance scores 11-18 yrs,[3],28
same,Dominance scores Mean all ages,[3],30
